Results on eight compounds are retold here after ChEMBL document CHEMBL1201862, “PubChem BioAssay data set” (2004).

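Step 1: Grow cells in 96-well plates. Step 2: Expose to compound for 48 hours at 5 concentrations. Step 3: Interpolate endpoints linearly; if unreached, use highest concentration. Abbreviation: GI50, concentration required for 50% inhibition of growth.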 Activity calls are given as the source filed them. Cut-off read from the data, not from the text of the source: active = GI50 up to about 1.1 µM and inactive = higher. Where only a bound is given, the exact number is not on record here.

Some test systems named below: A498; COLO 205; HCT-15; HL-60; HOP-92; Hs-578T; MCF7; MDA-MB-231; MOLT-4; NCI-H460; NCI-H522; OVCAR-3; RPMI-8226; RXF 393; SK-MEL-2; SK-MEL-5; SW-620; U-251; UACC-62.
Common to all, as to test: NCI anticancer screen, dose series, 48 h

Turning to `CCOn1cc(C[C@@]2(O)C(=O)OC3[C@@H](O)CO[C@@]32O)c2ccccc21` (some centres not stated), the GI50 in the assay on A498 is 1.94 µM (inactive); with COLO 205, > 100 µM (inactive); in the assay with HCT-15 it was over 100 µM; in the assay with HL-60, > 100 µM (inactive); with HOP-92 it was > 100 µM (inactive); in the assay with Hs-578T, > 100 µM (inactive). For the same compound, the GI50 with MCF7, in the assay on MDA-MB-231, in the assay on MOLT-4, in the assay with NCI-H460, in the assay on NCI-H522 and in the assay on OVCAR-3 was > 100 µM (inactive) throughout. Moreover, the GI50 with RPMI-8226, in the assay with RXF 393, in the assay with SK-MEL-2, in the assay on SK-MEL-5, in the assay on SW-620 and with U-251 was > 100 µM (inactive) in each case. Besides, the GI50 with UACC-62 is 46.7 µM (inactive).

As to `C=C1CC2(CCOc3ccc(Cl)cc32)OC1=O` (configuration not stated), the GI50 in the assay on A498 was 11.9 µM (inactive); with COLO 205, 1.64 µM (inactive); in the assay with HCT-15, 0.935 µM; in the assay on HL-60 it was 1.93 µM (inactive); with HOP-92, 3.48 µM (inactive); in the assay with Hs-578T it was 0.979 µM (active). The GI50 in the assay with MCF7 is 0.598 µM (active); in the assay on MDA-MB-231 it was 6.44 µM (inactive); with MOLT-4, 0.805 µM (active); with NCI-H460, 3.61 µM (inactive); with NCI-H522, 0.885 µM (active); with OVCAR-3, 1.39 µM (inactive). The GI50 in the assay on RPMI-8226 was 0.667 µM (active); with RXF 393, 2.23 µM (inactive); with SK-MEL-2, 1.86 µM (inactive); with SK-MEL-5, 5.02 µM (inactive); in the assay on SW-620 it was 1.26 µM (inactive); with U-251, 8.63 µM (inactive). In addition, the GI50 in the assay on UACC-62 was 13.1 µM (inactive).

For the compound `Cn1c(=O)c2sc3cc4c(cc3c2c2ccccc21)sc1c(=O)n(C)c2ccccc2c14`, the GI50 with A498 is > 100 µM (inactive); in the assay on COLO 205, > 100 µM (inactive); in the assay on HCT-15 it was over 100 µM; in the assay with HL-60, > 100 µM (inactive); in the assay with HOP-92, 23.9 µM (inactive); in the assay with Hs-578T, 43.4 µM (inactive). The GI50 with MCF7 was > 100 µM (inactive); in the assay with MDA-MB-231, 16.6 µM (inactive); in the assay on MOLT-4, 78.2 µM (inactive); in the assay with NCI-H460, 52.4 µM (inactive); in the assay with NCI-H522, 34.2 µM (inactive); in the assay on OVCAR-3, > 100 µM (inactive). In addition, the GI50 in the assay with RPMI-8226 was > 100 µM (inactive); in the assay on RXF 393, 15.9 µM (inactive); with SK-MEL-2 it was > 100 µM (inactive); with SK-MEL-5 it was > 100 µM (inactive); in the assay on SW-620, > 100 µM (inactive); with U-251, 19 µM (inactive). In the assay with UACC-62, the GI50 was > 100 µM (inactive).

`NC1=NCCN1CC(=O)O` [CYCLOCREATINE]: the GI50 was > 1000 µM (inactive) in the assay on A498; > 1000 µM (inactive) in the assay on COLO 205; over 1000 µM in the assay on HCT-15; > 1000 µM (inactive) in the assay on HL-60; > 1000 µM (inactive) in the assay with HOP-92; 4040 µM (inactive) in the assay with Hs-578T. Moreover, the GI50 was > 1000 µM (inactive) with MCF7; > 1000 µM (inactive) with MDA-MB-231; > 1000 µM (inactive) with MOLT-4; > 1000 µM (inactive) with NCI-H460; > 10000 µM (inactive) with NCI-H522; > 1000 µM (inactive) in the assay on OVCAR-3. Besides, the GI50 in the assay on RPMI-8226, in the assay with RXF 393, in the assay with SK-MEL-2, in the assay on SK-MEL-5, with SW-620 and in the assay with U-251 was > 1000 µM (inactive) each time. For the same compound, the GI50 with UACC-62 was > 1000 µM (inactive).

As to `CC(C)=CCC/C(C)=C/CC/C(C)=C/CC/C(C)=C/CC/C(C)=C/CC/C(C)=C/CC/C(C)=C/CC/C(C)=C/CC/C(C)=C/CO` [SOLANESOL], the GI50 is > 100 µM (inactive) with A498; > 100 µM (inactive) in the assay with COLO 205; over 100 µM in the assay with HCT-15; 77.4 µM (inactive) in the assay with HL-60; > 100 µM (inactive) in the assay on HOP-92; > 100 µM (inactive) in the assay on Hs-578T. In addition, the GI50 with MCF7 is 87.7 µM (inactive); with MDA-MB-231 it was > 100 µM (inactive); in the assay with MOLT-4 it was > 100 µM (inactive); in the assay on NCI-H460 it was > 100 µM (inactive); in the assay with NCI-H522 it was > 100 µM (inactive); with OVCAR-3, > 100 µM (inactive). The GI50 in the assay on RPMI-8226, with RXF 393, in the assay with SK-MEL-2, in the assay with SK-MEL-5, with SW-620 and in the assay on U-251 was > 100 µM (inactive) throughout. The GI50 in the assay with UACC-62 is > 100 µM (inactive).

For `CCCCCCCCCCCCCCCCS(=O)(=O)c1ccc(NN)cc1`, the GI50 with A498 was > 10 µM (inactive); in the assay with COLO 205 it was > 10 µM (inactive); in the assay with HCT-15, over 10 µM; in the assay with HL-60 it was 1.5 µM (inactive); in the assay on HOP-92, 7.1 µM (inactive); in the assay with Hs-578T, 7.96 µM (inactive). Further, the GI50 in the assay with MCF7 was > 10 µM (inactive); in the assay with MDA-MB-231, > 10 µM (inactive); with MOLT-4, 6.43 µM (inactive); in the assay with NCI-H460, > 10 µM (inactive); with NCI-H522 it was 5.9 µM (inactive); with OVCAR-3 it was 8.81 µM (inactive). For the same compound, the GI50 in the assay on RPMI-8226 was 5.33 µM (inactive); with RXF 393, > 10 µM (inactive); with SK-MEL-2 it was > 10 µM (inactive); with SK-MEL-5, > 10 µM (inactive); in the assay with SW-620, > 10 µM (inactive); in the assay on U-251 it was 6.19 µM (inactive). Also, the GI50 in the assay on UACC-62 is > 10 µM (inactive).

For the compound `C1=N\c2ccc(cc2)/N=C\c2ccc(cc2)OCc2cccc(n2)COc2ccc/1cc2`, the GI50 with A498 is > 100 µM (inactive); with COLO 205, > 100 µM (inactive); in the assay on HCT-15, over 100 µM; in the assay with HL-60, > 100 µM (inactive); in the assay on HOP-92, > 100 µM (inactive); in the assay on Hs-578T, > 100 µM (inactive). Also, the GI50 with MCF7, in the assay on MDA-MB-231, with MOLT-4, with NCI-H460, in the assay with NCI-H522 and with OVCAR-3 was > 100 µM (inactive) each time. For the same compound, the GI50 in the assay on RPMI-8226, with RXF 393, in the assay with SK-MEL-2, in the assay with SK-MEL-5, in the assay with SW-620 and with U-251 was > 100 µM (inactive) in each case. In the assay with UACC-62, the GI50 was > 100 µM (inactive).

For the compound `COC(=O)C(COC(=O)/C=C/c1ccc(OC(C)=O)c(OC(C)=O)c1)NC(=O)/C=C/c1ccc(OC(C)=O)c(OC(C)=O)c1` (configuration not stated), the GI50 in the assay on A498 was > 100 µM (inactive); with COLO 205, 20.7 µM (inactive); with HCT-15, 25.5 µM; with HL-60 it was 25.2 µM (inactive); in the assay on HOP-92, 32.7 µM (inactive); in the assay on Hs-578T, 30.3 µM (inactive). The GI50 in the assay on MCF7 was 28.3 µM (inactive); with MDA-MB-231, 14.9 µM (inactive); with MOLT-4, 38.3 µM (inactive); in the assay on NCI-H460, 21.3 µM (inactive); with NCI-H522, 18.1 µM (inactive); in the assay on OVCAR-3 it was 15.4 µM (inactive). Besides, the GI50 with RPMI-8226 is 19.6 µM (inactive); in the assay with RXF 393 it was 37.1 µM (inactive); in the assay on SK-MEL-2, 18.3 µM (inactive); with SK-MEL-5, 14.7 µM (inactive); with SW-620 it was 33.4 µM (inactive); with U-251 it was 28.4 µM (inactive). Also, the GI50 in the assay on UACC-62 was 15 µM (inactive).
